Measured values reported in patent US12448394B2, “Heterocyclic pyrazole derivatives as type III receptor tyrosine kinase inhibitors” (DEVELOPMENT CENTER FOR BIOTECHNOLOGY, priority 2019, dated 2025).
Changes are numbered by the printed parent chain.

Experiments:
[1] = tested on: experimental autoimmune encephalomyelitis (EAE); settings: mouse model for multiple sclerosis; cited from earlier work
FLT3 kinase = target: T1, FLT3 kinase (Homo sapiens, UniProt P36888); assay: FLT3 kinase assay (AlphaScreen); type: biochemical; settings: read-out: Ranking of IC50 values, FLT3
T1 construct: purchased SignalChem
T1 sequence (P36888 27-993): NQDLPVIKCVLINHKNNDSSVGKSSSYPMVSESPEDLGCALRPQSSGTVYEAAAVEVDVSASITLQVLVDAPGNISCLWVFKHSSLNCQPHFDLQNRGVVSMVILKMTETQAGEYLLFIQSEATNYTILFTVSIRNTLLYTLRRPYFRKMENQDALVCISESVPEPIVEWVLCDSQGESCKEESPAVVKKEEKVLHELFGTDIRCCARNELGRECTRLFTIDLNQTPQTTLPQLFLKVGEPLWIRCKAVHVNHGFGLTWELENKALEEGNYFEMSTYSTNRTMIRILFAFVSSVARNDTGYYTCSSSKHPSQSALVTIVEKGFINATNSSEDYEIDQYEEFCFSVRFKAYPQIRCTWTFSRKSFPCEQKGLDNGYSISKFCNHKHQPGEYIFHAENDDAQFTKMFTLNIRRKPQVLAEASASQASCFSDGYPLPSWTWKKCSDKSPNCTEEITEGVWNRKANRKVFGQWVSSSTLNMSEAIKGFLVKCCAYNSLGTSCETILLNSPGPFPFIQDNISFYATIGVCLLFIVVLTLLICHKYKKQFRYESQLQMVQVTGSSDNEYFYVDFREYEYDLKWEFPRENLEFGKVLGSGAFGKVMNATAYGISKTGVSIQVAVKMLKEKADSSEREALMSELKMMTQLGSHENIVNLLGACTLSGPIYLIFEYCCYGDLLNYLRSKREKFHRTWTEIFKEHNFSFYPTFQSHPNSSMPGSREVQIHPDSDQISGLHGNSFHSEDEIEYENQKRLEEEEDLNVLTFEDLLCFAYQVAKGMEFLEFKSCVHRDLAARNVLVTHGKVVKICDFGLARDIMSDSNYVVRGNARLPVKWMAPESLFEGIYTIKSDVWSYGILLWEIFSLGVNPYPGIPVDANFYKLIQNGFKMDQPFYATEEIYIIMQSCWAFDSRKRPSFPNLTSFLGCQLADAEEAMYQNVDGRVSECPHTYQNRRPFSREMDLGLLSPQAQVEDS
Description: (§1) Inhibition of FLT3 kinase activity by a test compound disclosed herein was estimated by AlphaScreen (PerkinElmer, Akron, Ohio, USA). Standard assay conditions were 1.5 ng of recombinant FLT3 kinase (SignalChem, Richmond, BC, Canada) with 6 ng Biotin-conjugated Poly-(Glu 4: Tyr 1) (Cisbio, Bedford, MA, USA) in the assay buffer (10 μM ATP, 10 mM MOPs, pH7.0, 0.21 mM EDTA, 0.5% glycerol, 1 mg/mL BSA, 0.01% 2-mercaptoethanol, 0.001% Brij35, 10 mM MgCl2) in a final volume of 25 μL. Reactions were incubated at 30° C. for 30 min and stopped by adding 5 μL of 50 mM EDTA. Analysis of resulting product using an AlphaScreen kit and counted with Enspire Alpha (PerkinElmer, Waltham, MA, USA). […] The IC50 values of inhibitors were determined after carrying out assays with each compound at serially diluted concentrations in duplication. The results were analyzed using linear regression software (GraphPad Prism 5; GraphPad Software Inc.)

FLT3-D835Y mutant kinase = target: T2, FLT3-D835Y mutant kinase (Homo sapiens, UniProt P36888, D835Y); assay: FLT3-D835Y mutant kinase assay (AlphaScreen); type: biochemical; settings: read-out: Ranking of IC50 values, FLT3-D835Y
T2 construct: purchased SignalChem
T2 sequence (P36888 27-993 D835Y): T1 sequence (P36888 27-993) with D809Y
Description: as §1, with “FLT3-D835Y mutant” for “FLT3”, “(PerkinElmer).” for “(PerkinElmer, Akron, Ohio, USA).”, “1” for “1.5”, “(SignalChem)” for “(SignalChem, Richmond, BC, Canada)”, “(Cisbio)” for “(Cisbio, Bedford, MA, USA)”, “(PerkinElmer).” for “(PerkinElmer, Waltham, MA, USA).”

PDGFRα kinase = target: T3, PDGFRα kinase (Homo sapiens, UniProt P16234); assay: PDGFRα kinase assay (AlphaScreen); type: biochemical; settings: read-out: Ranking of IC50 values, PDGFRα
T3 construct: purchased SignalChem
Description: Inhibition of PDGFRα kinase activity by a test compound disclosed herein was estimated by AlphaScreen (PerkinElmer). Standard assay conditions were 1.5 ng of recombinant PDGFRα kinase (SignalChem) with 6 ng Biotin-conjugated Poly-(Glu 4: Tyr 1) (Cisbio) in the assay buffer (10 μM ATP, 10 mM MOPs, pH 7.0, 0.21 mM EDTA, 0.5% glycerol, 1 mg/mL BSA, 0.01% 2-mercaptoethanol, 0.001% Brij35, 10 mM MgCl2) in a final volume of 25 μL. Reactions were incubated at 30° C. for 30 min and stopped by adding […] of 50 mM EDTA. Analysis of resulting product using an AlphaScreen kit and counted with Enspire Alpha (PerkinElmer). […] The IC50 values of inhibitors were determined after carrying out assays with each compound at serially diluted concentrations in duplication. The results were analyzed using linear regression software (GraphPad Prism 5; GraphPad Software Inc.)

MET kinase = target: T4, MET kinase (Homo sapiens, UniProt P08581); assay: MET kinase assay (AlphaScreen, counter screen); type: biochemical; settings: read-out: Ranking of IC50 values, MET
T4 construct: purchased SignalChem
Description: Because MET kinase belonged to Class VIII RTK family have one transmembrane a chain linked with one extracellular β chain which is different form Class III RTK family with 5 Immunoglobin-like extracellular domains. Standard assay conditions were 1 ng of recombinant MET kinase (SignalChem) with 3 ng Biotin-conjugated Poly-(Glu 4: Tyr 1) (Cisbio) in the assay buffer ([…], 10 mM MOPs, pH 7.0, 0.21 mM EDTA, 0.5% glycerol, 1 mg/mL BSA, 0.01% 2-mercaptoethanol, 0.001% Brij35, 10 mM MgCl2) in a final volume of 25 μL. Reactions were incubated at 30° C. for 45 min and stopped by adding 5 μL of 50 mM EDTA. Analysis of resulting product using an AlphaScreen kit and counted with Enspire Alpha (PerkinElmer). […] The IC50 values of inhibitors were determined after carrying out assays with each compound at serially diluted concentrations in duplication. The results were analyzed using linear regression software (GraphPad Prism 5; GraphPad Software Inc.)

T3 sequence (P16234 24-1089): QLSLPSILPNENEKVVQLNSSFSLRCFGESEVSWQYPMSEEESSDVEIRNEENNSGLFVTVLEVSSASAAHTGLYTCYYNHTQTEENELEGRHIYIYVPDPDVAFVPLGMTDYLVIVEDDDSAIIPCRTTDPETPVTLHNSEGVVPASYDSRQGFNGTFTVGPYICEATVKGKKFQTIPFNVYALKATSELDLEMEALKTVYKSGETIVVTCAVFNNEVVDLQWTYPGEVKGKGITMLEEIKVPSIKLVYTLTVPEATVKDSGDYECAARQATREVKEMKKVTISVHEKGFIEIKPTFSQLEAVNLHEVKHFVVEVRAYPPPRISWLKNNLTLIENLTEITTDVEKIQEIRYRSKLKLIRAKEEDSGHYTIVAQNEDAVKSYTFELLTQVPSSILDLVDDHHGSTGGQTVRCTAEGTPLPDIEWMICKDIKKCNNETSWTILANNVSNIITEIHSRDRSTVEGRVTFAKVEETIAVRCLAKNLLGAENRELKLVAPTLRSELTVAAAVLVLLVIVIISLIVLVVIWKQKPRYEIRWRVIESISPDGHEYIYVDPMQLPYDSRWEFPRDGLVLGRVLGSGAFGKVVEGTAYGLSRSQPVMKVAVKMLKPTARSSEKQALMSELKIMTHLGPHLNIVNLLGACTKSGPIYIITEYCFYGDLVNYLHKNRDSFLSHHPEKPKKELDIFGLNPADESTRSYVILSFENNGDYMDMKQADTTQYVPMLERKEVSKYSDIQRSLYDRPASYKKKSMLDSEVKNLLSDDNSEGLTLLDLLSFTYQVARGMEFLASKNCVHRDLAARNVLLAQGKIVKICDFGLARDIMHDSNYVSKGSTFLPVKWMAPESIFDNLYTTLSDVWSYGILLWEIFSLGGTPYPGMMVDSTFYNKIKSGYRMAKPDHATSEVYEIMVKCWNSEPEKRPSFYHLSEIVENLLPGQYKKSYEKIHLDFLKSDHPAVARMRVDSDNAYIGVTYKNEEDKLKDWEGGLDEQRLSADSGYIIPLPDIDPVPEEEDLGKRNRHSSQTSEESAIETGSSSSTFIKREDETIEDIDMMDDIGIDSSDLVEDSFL
T4 sequence (P08581 25-1390): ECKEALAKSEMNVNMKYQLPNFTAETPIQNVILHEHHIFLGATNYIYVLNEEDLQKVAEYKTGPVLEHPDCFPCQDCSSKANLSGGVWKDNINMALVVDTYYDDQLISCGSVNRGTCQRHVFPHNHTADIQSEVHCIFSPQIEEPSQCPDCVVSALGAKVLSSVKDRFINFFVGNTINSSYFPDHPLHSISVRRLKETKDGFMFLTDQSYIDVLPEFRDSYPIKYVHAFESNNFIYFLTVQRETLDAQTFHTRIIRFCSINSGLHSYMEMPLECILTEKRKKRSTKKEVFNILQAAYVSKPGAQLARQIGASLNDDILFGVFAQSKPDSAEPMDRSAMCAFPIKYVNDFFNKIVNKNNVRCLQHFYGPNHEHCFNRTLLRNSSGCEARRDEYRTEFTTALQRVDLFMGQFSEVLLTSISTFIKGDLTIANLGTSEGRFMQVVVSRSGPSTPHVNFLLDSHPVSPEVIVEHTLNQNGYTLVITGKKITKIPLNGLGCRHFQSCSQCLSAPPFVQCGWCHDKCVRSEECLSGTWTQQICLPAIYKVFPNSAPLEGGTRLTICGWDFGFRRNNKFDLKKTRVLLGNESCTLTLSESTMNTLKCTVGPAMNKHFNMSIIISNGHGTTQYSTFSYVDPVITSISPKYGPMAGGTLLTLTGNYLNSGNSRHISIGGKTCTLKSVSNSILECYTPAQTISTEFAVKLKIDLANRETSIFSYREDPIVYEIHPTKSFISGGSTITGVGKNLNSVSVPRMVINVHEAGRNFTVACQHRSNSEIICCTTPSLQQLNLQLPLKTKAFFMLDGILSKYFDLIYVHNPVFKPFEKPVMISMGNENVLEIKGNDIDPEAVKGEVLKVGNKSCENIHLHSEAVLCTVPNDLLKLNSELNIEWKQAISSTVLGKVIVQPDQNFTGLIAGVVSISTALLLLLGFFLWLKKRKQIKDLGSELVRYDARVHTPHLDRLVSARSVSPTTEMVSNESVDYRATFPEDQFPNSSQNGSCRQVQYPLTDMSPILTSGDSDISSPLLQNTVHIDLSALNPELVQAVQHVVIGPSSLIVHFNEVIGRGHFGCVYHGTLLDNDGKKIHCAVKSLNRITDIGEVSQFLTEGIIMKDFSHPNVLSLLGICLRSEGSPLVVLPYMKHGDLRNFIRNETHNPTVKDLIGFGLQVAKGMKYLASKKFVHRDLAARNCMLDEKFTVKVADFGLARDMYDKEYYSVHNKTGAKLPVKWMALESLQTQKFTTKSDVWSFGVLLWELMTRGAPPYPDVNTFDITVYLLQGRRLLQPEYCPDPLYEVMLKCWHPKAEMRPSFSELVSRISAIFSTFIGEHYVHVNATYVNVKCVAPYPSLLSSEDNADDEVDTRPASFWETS

| Compound | reducing myelin loss in EAE [1] | IC50 (FLT3 kinase) [µM] | IC50 (FLT3-D835Y mutant kinase) [µM] | IC50 (PDGFRα kinase) [µM] | IC50 (MET kinase) [µM] |
| --- | --- | --- | --- | --- | --- |
| C[C@]12O[C@H](C[C@]1(O)CO)n1c3ccccc3c3c4c(c5c6ccccc6n2c5c31)CNC4=O [CEP-701] | effective in reducing myelin loss | – | – | – | – |
| Brc1n[nH]c2cc(-c3n[nH]c4c3Cc3sc(-c5ccc(CN6CCOCC6)cc5)cc3-4)ccc12 [Compound 68, 4-(4-(3-(3-bromo-1H-indazol-6-yl)-1,4-dihydro-thieno[2′,3′:4,5]cyclopenta [1,2-c]pyrazol-6-yl)benzyl)morpholine] | – | 0.001 to 0.01 | 0.001 to 0.01 | 0.001 to 0.01 | > 1 |
